Assay results taken from PMC6690746 (European journal of medicinal chemistry, 2018).
“Also recorded” adds a separate entry of the source.

What was measured:
Assay type in all cases: cell-based, human
[1] = tested on: T98G cells; test: Antitumor activity; conditions: for EC50: Homo sapiens, read-out: Antitumor activity EC50; for Maximal killing activity: concentration not stated at this place; for Fold increase in EC50 value compared with 8: versus compound 8 (87 nM)
[2] = tested on: NCI-60 cancer cell line panel; test: NCI 60 cell screen; conditions: for Loss in cell number: NCI-60, the 4 cell lines killed
[3] = tested on: HepG2 (liver); test: Cell-killing activity; conditions: HepG2, at 1–10 μM
[4] = tested on: PD-GBM cells; test: Cell-killing activity in PD-GBM cells, all subtypes together; conditions: applied at 1–10 μM
[5] = NCI-60, the 11 cell lines with halted proliferation
[6] = NCI-60, the 41 cell lines with reduced proliferation rate

COc1ccc(/C=C\c2cc(OC)c(OC)c(OC)c2)cc1O [Compound 1, combretastatin A-4, reference compound]
Maximal killing ([1]; 72 h, at 10 nM): 30.4% ± 2.1 | EC50 ([1]; 72 h): 0.6 nM

COC(=O)Nc1nc2cc(C(=O)c3cccs3)ccc2[nH]1 [Compound 3, nocodazole, reference compound]
Maximal killing (% ± SEM) ([1]; 72 h, at 10 μM): 45.6% ± 1.7 | EC50 ([1]; 72 h): 29 nM

CCn1c2ccccc2c2cc(C(=O)c3ccc(C)c4ccccc34)ccc21 [Compound 8, 9-ethyl-3-[(4-methylnaphthalen-1-yl)carbonyl]-9H-carbazole]
Maximal killing activity ([1]; 72 h): 35–45% | Loss in cell number [2]: 13% to 60% | Percent growth inhibition [2, 5]: 9% to −1% | Percent growth inhibition [2, 6]: 67% to 10%

CCn1c2ccccc2c2cc(C(=O)N3CCN(C)CC3)ccc21 [Compound 9, 9-ethyl-3-(4-methylpiperazine-1-carbonyl)-9H-carbazole]
Effect on T98G cells in words ([1]; 72 h): only weakly active at concentrations above five micromolar or essentially inactive; also recorded: did not significantly affect T98G cell viability

CCn1c2ccccc2c2cc(C(=O)Cc3ccccc3)ccc21 [Compound 13, 1-(9-ethyl-9H-carbazol-3-yl)-2-phenylethan-1-one]
Effect on T98G cells in words ([1]; 72 h): only weakly active at concentrations above five micromolar or essentially inactive; also recorded: did not significantly affect T98G cell viability

CCn1c2ccccc2c2cc(C(=O)c3cccc4ccccc34)ccc21 [Compound 14, 9-ethyl-3-(naphthalene-1-carbonyl)-9H-carbazole]
Fold increase in EC50 value compared with 8 [1]: 20 fold

CCCn1c2ccccc2c2cc(C(=O)c3ccc(C)c4ccccc34)ccc21 [Compound 16, 9-propyl-3-[(4-methylnaphthalen-1-yl)carbonyl]-9H-carbazole]
Effect on T98G cells in words ([1]; 72 h): only weakly active at concentrations above five micromolar or essentially inactive; also recorded: did not significantly affect T98G cell viability | Fold increase in EC50 value compared with 8 [1]: 115 fold

Cc1ccc(C(=O)c2ccc3c(c2)c2ccccc2n3CC(F)(F)F)c2ccccc12 [Compound 18, 3-(4-methylnaphthalene-1-carbonyl)-9-(2,2,2-trifluoroethyl)-9H-carbazole]
Effect on T98G cells in words ([1]; 72 h): only weakly active at concentrations above five micromolar or essentially inactive | Maximal killing activity ([1]; 72 h): 35–45% | Fold increase in EC50 value compared with 8 [1]: 64 fold

CCn1c2ccccc2c2cc(C(=O)c3cccc4ncccc34)ccc21 [Compound 20, 9-ethyl-3-(quinoline-5-carbonyl)-9H-carbazole]
Loss in cell number [2]: 13% to 60% | Percent growth inhibition [2, 5]: 9% to −1% | Percent growth inhibition [2, 6]: 67% to 10%

CCn1c2ccccc2c2cc(C(=O)c3cccc4c3CCCN4)ccc21 [Compound 23]
Effect on T98G cells in words ([1]; 72 h): only weakly active at concentrations above five micromolar or essentially inactive; also recorded: did not significantly affect T98G cell viability | Effect on NCI-60 cell lines in words ([2]; NCI-60 panel): did not significantly affect the viability and proliferation of any of the cell lines | Growth inhibition: Delta ([2]; NCI-60 panel): 10.42 | Growth inhibition: Mean ([2]; NCI-60 panel, over all cell lines): 102.05

CCn1c2ccccc2c2cc(C(=O)c3cccc4c3NCCC4)ccc21 [Compound 24, 9-ethyl-3-(1,2,3,4-tetrahydroquinoline-8-carbonyl)-9H-carbazole]
Effect on T98G cells in words ([1]; 72 h): only weakly active at concentrations above five micromolar or essentially inactive; also recorded: did not significantly affect T98G cell viability

CCn1c2ccccc2c2cc(C(=O)N3CCCc4ccccc43)ccc21 [Compound 25, 9-ethyl-3-[(1,2,3,4-tetrahydroquinolin-1-yl)carbonyl]-9H-carbazole]
Activity in HepG2 cells in words [3]: inactive | PD-GBM cells killed [4]: 95–100%

CCn1c2ccccc2c2cc(C(=S)c3ccc(C)c4ccccc34)ccc21 [Compound 26, 9-ethyl-3-(4-methylnaphthalene-1-carbothioyl)-9H-carbazole]
Effect on T98G cells in words ([1]; 72 h): only weakly active at concentrations above five micromolar or essentially inactive; also recorded: did not significantly affect T98G cell viability

CCn1c2ccccc2c2cc(C(O)c3ccc(C)c4ccccc34)ccc21 (stereo not drawn) [Compound 27, (9-ethyl-9H-carbazol-3-yl)(4-methylnaphthalen-1-yl)methanol]
Fold increase in EC50 value compared with 8 [1]: 6 fold | Loss in cell number [2]: 13% to 60% | Percent growth inhibition [2, 5]: 9% to −1% | Percent growth inhibition [2, 6]: 67% to 10%

CCn1c2c(c3ccccc31)CN(C(=O)c1ccc(C)c3ccccc13)CC2 [Compound 35, 5-ethyl-2-[(4-methylnaphthalen-1-yl)carbonyl]-1H,2H,3H,4H,5H-pyrido[4,3-b]indole]
Maximal killing activity ([1]; 72 h): 35–45%

CC[C@]1(O)C[C@@H]2CN(CCc3c([nH]c4ccccc34)[C@@](C(=O)OC)(c3cc4c(cc3OC)N(C)[C@H]3[C@@](O)(C(=O)OC)[C@H](OC(C)=O)[C@]5(CC)C=CCN6CC[C@]43[C@@H]65)C2)C1 [vinblastine, reference compound]
Maximal killing activity ([1]; 72 h): 36.0% ± 2.3
